Data as given in ChEMBL document CHEMBL1125667, “Receptor-based design of novel dihydrofolate reductase inhibitors: benzimidazole and indole derivatives” (J Med Chem, 1991).

What was measured:
[1] = biological target: T1, Dihydrofolate reductase (Escherichia coli) (UniProt P0ABQ4); assay: (§1) Inhibitory activity against Dihydrofolate reductase obtained from Escherichia coli
T1 sequence (whole entry): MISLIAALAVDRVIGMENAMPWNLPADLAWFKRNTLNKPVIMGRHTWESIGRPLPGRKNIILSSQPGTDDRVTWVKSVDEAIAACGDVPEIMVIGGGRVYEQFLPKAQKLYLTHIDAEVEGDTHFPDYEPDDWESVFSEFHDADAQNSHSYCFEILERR

[2] = biological target: T2, Dihydrofolate reductase (Rattus norvegicus) (UniProt Q920D2); assay: Inhibitory activity against Dihydrofolate reductase obtained from rat liver
T2 sequence (whole entry): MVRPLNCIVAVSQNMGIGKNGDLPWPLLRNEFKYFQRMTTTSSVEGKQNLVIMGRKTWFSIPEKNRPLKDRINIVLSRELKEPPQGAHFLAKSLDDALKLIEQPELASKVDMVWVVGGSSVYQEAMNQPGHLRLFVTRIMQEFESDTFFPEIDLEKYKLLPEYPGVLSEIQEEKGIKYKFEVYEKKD

[3] = biological target: T3, Dihydrofolate reductase (Escherichia coli, UniProt P0ABQ4); assay: as §1; conditions: read-out: I50
T3 sequence (P0ABQ4 whole entry): T1 sequence (whole entry)

Q: How did the I42 [1] turn out when `Nc1nc2c(N)cc(Cc3ccccc3)cc2[nH]1` was run?
A: 300 µM

Q: What about the I5 [2] of the same compound?
A: 300 µM

Q: Which results are given for `Nc1nc2c(N)c3c(cc2[nH]1)C1(CC3)SCCS1`?
A: I31 [1]: 140 µM; I14 [2]: 14 µM

Q: Which IC50 [3] does the source give for `Nc1cc2c(N)cc(Cc3ccccc3)cc2[nH]1` here?
A: 100 µM

Q: And the I28 [2]?
A: 500 µM

Q: What does the source list for `Nc1nc2c(N)c3c(cc2[nH]1)CCC3`?
A: I13 [1]: 360 µM; I7 [2]: 360 µM

Q: How did the I14 [1] turn out when `Nc1nc2c(N)cc(C(=O)c3ccccc3)cc2[nH]1` was run?
A: 100 µM

Q: What about the I16 [2] of the same compound?
A: 100 µM
